In patent US20100075368A1, “Media for recovery of microorganism in the presence of antibiotics” (Millipore Corporation, priority 2004, published 2010):

Assays:
Format in all cases: cell-based
S. aureus (ATCC 6538) [1] = assay: Direct inoculation of SCDB broth tubes, growth in presence of antibiotic; conditions: ciprofloxacin 100 μg/mL in SCDB, 200 cfu
Experimental: Test tubes containing SCDB media in the presence or absence of magnesium cation or ciprofloxacin antibiotic were inoculated with 200 colony forming units (cfu) of S. aureus (ATCC 6538). Sample A was used with a ciprofloxacin sample (100 μg/mL) and contained no divalent cation constituent. B was used with ciprofloxacin (100 μg/mL) and contained 0.5 M magnesium cation. C was used with a control and contained 0.5M of the same divalent cation of B. D was used with a control and contained no divalent cation.

E. coli (ATCC 25922) = assay: Simulated air monitoring: antibiotic disc zone of inhibition on SCDA; conditions: Escherichia coli, disc: ofloxacin 5 ug
Experimental: (§1) One method of monitoring air in an antibiotic manufacturing plant is to impact air onto an agar surface collecting both microorganisms and antibiotic on the agar surface. This test was simulated by spreading microorganisms over an agar surface containing varying amounts of magnesium cation and then placing disks containing antibiotics onto the agar surface. The zone of inhibition around each disk was measured to give an indication of the ability of the medium to neutralize the effect of the antibiotic (method followed is similar to the susceptibility disc test used in clinical microbiology). S. aureus (ATCC 6538), P. aeruginosa (ATCC 9027) or E. coli (ATCC 25922) were spread on the agar surface of SCDA containing 0.1M, 0.2M, 0.3M, 0.4M or 0.5M magnesium cation. Discs impregnated with a known amount of antibiotic were then placed onto the bacteria on the agar plate. Plates were incubated and the zone of inhibition of bacterial growth was measured.

[2] = test system: P. aeruginosa (ATCC 9027); assay: as above; conditions: Pseudomonas aeruginosa, disc: ofloxacin 5 ug
Experimental: as §1

S. aureus (ATCC 6538) [3] = assay: as above; conditions: Staphylococcus aureus, disc: ofloxacin 5 ug
Experimental: as §1

[4] = ATCC25922, 0.0 M cation in SCDA, streptomycin 10 ug, doxycycline 30 ug
[5] = ATCC25922, 0.1M magnesium cation in SCDA, streptomycin 10 ug, doxycycline 30 ug
[6] = ATCC25922, 0.3M magnesium cation in SCDA, streptomycin 10 ug, doxycycline 30 ug
[7] = ATCC25922, 0.5M magnesium cation in SCDA, streptomycin 10 ug, doxycycline 30 ug
[8] = ATCC9027, 0.0 M cation in SCDA, streptomycin 10 ug, doxycycline 30 ug
[9] = ATCC9027, 0.1M magnesium cation in SCDA, streptomycin 10 ug, doxycycline 30 ug
[10] = ATCC9027, 0.3M magnesium cation in SCDA, streptomycin 10 ug, doxycycline 30 ug
[11] = ATCC9027, 0.5M magnesium cation in SCDA, streptomycin 10 ug, doxycycline 30 ug
[12] = ATCC6538, 0.0 M cation in SCDA, streptomycin 10 ug, doxycycline 30 ug
[13] = ATCC6538, 0.1M magnesium cation in SCDA, streptomycin 10 ug, doxycycline 30 ug
[14] = ATCC6538, 0.3M magnesium cation in SCDA, streptomycin 10 ug, doxycycline 30 ug
[15] = ATCC6538, 0.5M magnesium cation in SCDA, streptomycin 10 ug, doxycycline 30 ug

O=C(O)c1cn(C2CC2)c2cc(N3CCNCC3)c(F)cc2c1=O [Ciprofloxacin, ciprofloxacin]
Result (growth of microorganism) (S. aureus (ATCC 6538) [1]; 0.5 M magnesium cation added to broth): Growth | Result (growth of microorganism) (S. aureus (ATCC 6538) [1]; divalent cation added to broth: None): No growth

C[C@H]1c2cccc(O)c2C(=O)C2=C(O)[C@]3(O)C(=O)C(C(N)=O)=C(O)[C@@H](N(C)C)[C@@H]3[C@@H](O)[C@@H]21 [Doxycycline, doxycycline]
zone of inhibition at 30 µg/disc (E. coli (ATCC 25922); [4]): 18 mm | zone of inhibition at 30 µg/disc (E. coli (ATCC 25922); [5]): 6 mm | zone of inhibition at 30 µg/disc (E. coli (ATCC 25922); [6]): 6 mm | zone of inhibition at 30 µg/disc (E. coli (ATCC 25922); [7]): 6 mm | zone of inhibition at 30 µg/disc [2, 8]: 6 mm | zone of inhibition at 30 µg/disc [2, 9]: 6 mm | zone of inhibition at 30 µg/disc [2, 10]: 6 mm | zone of inhibition at 30 µg/disc [2, 11]: 6 mm | zone of inhibition at 30 µg/disc (S. aureus (ATCC 6538) [3]; [12]): 25 mm | zone of inhibition at 30 µg/disc (S. aureus (ATCC 6538) [3]; [13]): 13 mm | zone of inhibition at 30 µg/disc (S. aureus (ATCC 6538) [3]; [14]): 11 mm | zone of inhibition at 30 µg/disc (S. aureus (ATCC 6538) [3]; [15]): 13 mm

CC1COc2c(N3CCN(C)CC3)c(F)cc3c(=O)c(C(=O)O)cn1c23 (centres unmarked) [Ofloxacin, ofloxacin]
zone of inhibition at 5 µg/disc (E. coli (ATCC 25922); [4]): 26 mm | zone of inhibition at 5 µg/disc (E. coli (ATCC 25922); [5]): 13 mm | zone of inhibition at 5 µg/disc (E. coli (ATCC 25922); ATCC25922, 0.2M magnesium cation in SCDA): 13 mm | zone of inhibition at 5 µg/disc (E. coli (ATCC 25922); [6]): 13 mm | zone of inhibition at 5 µg/disc (E. coli (ATCC 25922); ATCC25922, 0.4M magnesium cation in SCDA): 12 mm | zone of inhibition at 5 µg/disc (E. coli (ATCC 25922); [7]): 12 mm | zone of inhibition at 5 µg/disc [2, 8]: 20 mm | zone of inhibition at 5 µg/disc [2, 9]: 6 mm | zone of inhibition at 5 µg/disc ([2]; ATCC9027, 0.2M magnesium cation in SCDA): 6 mm | zone of inhibition at 5 µg/disc [2, 10]: 6 mm | zone of inhibition at 5 µg/disc ([2]; ATCC9027, 0.4M magnesium cation in SCDA): 6 mm | zone of inhibition at 5 µg/disc [2, 11]: 6 mm | zone of inhibition at 5 µg/disc (S. aureus (ATCC 6538) [3]; [12]): 23 mm | zone of inhibition at 5 µg/disc (S. aureus (ATCC 6538) [3]; [13]): 11 mm | zone of inhibition at 5 µg/disc (S. aureus (ATCC 6538) [3]; ATCC6538, 0.2M magnesium cation in SCDA): 8 mm | zone of inhibition at 5 µg/disc (S. aureus (ATCC 6538) [3]; [14]): 6 mm | zone of inhibition at 5 µg/disc (S. aureus (ATCC 6538) [3]; ATCC6538, 0.4M magnesium cation in SCDA): 7 mm | zone of inhibition at 5 µg/disc (S. aureus (ATCC 6538) [3]; [15]): 6 mm

[H]/N=C(/N)N[C@H]1[C@H](O)[C@@H](O)[C@H](O[C@@H]2O[C@@H](C)[C@](O)(C=O)[C@H]2O[C@@H]2O[C@@H](CO)[C@H](O)[C@@H](O)[C@@H]2NC)[C@@H](N/C(N)=N\[H])[C@@H]1O [Streptomycin, streptomycin]
zone of inhibition at 10 µg/disc (E. coli (ATCC 25922); [4]): 14 mm | zone of inhibition at 10 µg/disc (E. coli (ATCC 25922); [5]): 12 mm | zone of inhibition at 10 µg/disc (E. coli (ATCC 25922); [6]): 9 mm | zone of inhibition at 10 µg/disc (E. coli (ATCC 25922); [7]): 6 mm | zone of inhibition at 10 µg/disc [2, 8]: 11 mm | zone of inhibition at 10 µg/disc [2, 9]: 6 mm | zone of inhibition at 10 µg/disc [2, 10]: 6 mm | zone of inhibition at 10 µg/disc [2, 11]: 6 mm | zone of inhibition at 10 µg/disc (S. aureus (ATCC 6538) [3]; [12]): 17 mm | zone of inhibition at 10 µg/disc (S. aureus (ATCC 6538) [3]; [13]): 12 mm | zone of inhibition at 10 µg/disc (S. aureus (ATCC 6538) [3]; [14]): 7 mm | zone of inhibition at 10 µg/disc (S. aureus (ATCC 6538) [3]; [15]): 8 mm
